Data as given in ChEMBL document CHEMBL3297733, “Discovery and optimization of pyrrolo[1,2-a]pyrazinones leads to novel and selective inhibitors of PIM kinases” (Bioorg Med Chem, 2013).

Tests used:
[1] = Apparent permeability from apical to basolateral side in human Caco2 cells after 120 mins by LC-MS/MS analysis; conditions: Caco-2
[2] = Cytotoxicity against mouse BA/F3 cells overexpressing PIM1 after 72 hrs by CellTitre-Glo assay; type: functional, cell-based; conditions: BaF3, 72 h
[3] = Intrinsic clearance in human liver microsomes after 5 mins by LC-MS/MS analysis; type: ADME; conditions: read-out: CLH
[4] = biological target: Serine/threonine-protein kinase pim-2 (Homo sapiens, UniProt Q9P1W9); assay: Inhibition of human PIM2 using ARK-RERTYSFGHHA as substrate incubated for 60 mins prior to substrate addition by topcount scintillation counting analysis in presence of [P33gamma]-ATP
[5] = biological target: Serine/threonine-protein kinase pim-1 (Homo sapiens, UniProt P11309); assay: Inhibition of human PIM1 using ARK-RERTYSFGHHA as substrate incubated for 60 mins prior to substrate addition by topcount scintillation counting analysis in presence of [P33gamma]-ATP
[6] = biological target: Cyclin-dependent kinase 2 (Homo sapiens, UniProt P24941); assay: Inhibition of CDK2 (unknown origin)
[7] = biological target: Cell division cycle 7-related protein kinase (Homo sapiens, UniProt O00311); assay: Inhibition of CDC7 (unknown origin)
[8] = biological target: Glycogen synthase kinase-3 beta (Homo sapiens, UniProt P49841); assay: Inhibition of GSK3beta (unknown origin)
[9] = Apparent permeability by PAMPA; type: physicochemical
[10] = Thermodynamic aqueous solubility of the compound at pH 7; type: physicochemical; conditions: buffer
[11] = biological target: Platelet-derived growth factor receptor (Homo sapiens, UniProt P09619+P16234); assay: Inhibition of PDGFR (unknown origin); type: protein-complex assay
Casein kinase II = Casein kinase II (Homo sapiens, UniProt P19784+P67870+P68400); assay: Inhibition of CK2 (unknown origin); type: protein-complex assay
Casein kinase II, sequence (P67870 whole entry): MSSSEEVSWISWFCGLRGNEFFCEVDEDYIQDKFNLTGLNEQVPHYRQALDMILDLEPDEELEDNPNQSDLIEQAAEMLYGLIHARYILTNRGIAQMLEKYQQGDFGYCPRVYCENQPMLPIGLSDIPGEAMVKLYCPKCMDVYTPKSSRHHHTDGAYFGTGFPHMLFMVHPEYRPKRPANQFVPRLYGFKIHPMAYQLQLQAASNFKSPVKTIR
Casein kinase II, sequence (P68400 whole entry): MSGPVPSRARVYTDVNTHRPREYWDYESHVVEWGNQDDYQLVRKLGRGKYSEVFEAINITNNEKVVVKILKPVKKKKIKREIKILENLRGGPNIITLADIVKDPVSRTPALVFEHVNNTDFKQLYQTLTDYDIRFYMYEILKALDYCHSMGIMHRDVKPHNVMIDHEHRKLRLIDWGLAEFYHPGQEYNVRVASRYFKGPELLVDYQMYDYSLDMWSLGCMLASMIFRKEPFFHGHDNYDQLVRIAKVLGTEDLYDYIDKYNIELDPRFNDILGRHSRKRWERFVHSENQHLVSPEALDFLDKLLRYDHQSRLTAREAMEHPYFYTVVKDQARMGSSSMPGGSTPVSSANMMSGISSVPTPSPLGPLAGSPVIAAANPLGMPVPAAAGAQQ
Casein kinase II, sequence (P19784 whole entry): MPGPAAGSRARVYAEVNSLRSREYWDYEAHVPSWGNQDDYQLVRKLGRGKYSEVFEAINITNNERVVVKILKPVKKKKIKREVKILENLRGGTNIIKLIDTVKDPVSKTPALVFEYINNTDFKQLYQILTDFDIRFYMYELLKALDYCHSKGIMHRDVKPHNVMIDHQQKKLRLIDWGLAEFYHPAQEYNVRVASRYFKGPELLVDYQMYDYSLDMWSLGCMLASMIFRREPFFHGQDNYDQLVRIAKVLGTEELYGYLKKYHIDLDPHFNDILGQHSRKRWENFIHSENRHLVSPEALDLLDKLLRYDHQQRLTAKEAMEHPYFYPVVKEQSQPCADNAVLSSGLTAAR

Serine/threonine-protein kinase pim-1, sequence (P11309 whole entry): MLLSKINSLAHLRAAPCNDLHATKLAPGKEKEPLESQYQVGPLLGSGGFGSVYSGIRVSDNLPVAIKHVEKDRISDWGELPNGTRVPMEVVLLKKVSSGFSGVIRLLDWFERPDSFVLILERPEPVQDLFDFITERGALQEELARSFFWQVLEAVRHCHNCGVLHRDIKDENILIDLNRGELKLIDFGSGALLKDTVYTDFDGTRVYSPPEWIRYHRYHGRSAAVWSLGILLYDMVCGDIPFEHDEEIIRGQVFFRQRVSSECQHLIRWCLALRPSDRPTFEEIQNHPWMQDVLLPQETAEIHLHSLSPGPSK
Serine/threonine-protein kinase pim-2, sequence (Q9P1W9 whole entry): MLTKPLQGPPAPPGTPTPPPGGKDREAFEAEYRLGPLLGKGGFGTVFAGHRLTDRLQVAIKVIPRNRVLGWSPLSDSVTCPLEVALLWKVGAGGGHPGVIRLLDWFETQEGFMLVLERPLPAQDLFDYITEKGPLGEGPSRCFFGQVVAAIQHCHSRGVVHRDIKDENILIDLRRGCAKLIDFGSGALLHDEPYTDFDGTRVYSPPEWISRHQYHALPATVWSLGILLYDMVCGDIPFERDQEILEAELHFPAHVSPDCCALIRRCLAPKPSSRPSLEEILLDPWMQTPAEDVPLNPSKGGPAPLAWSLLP
Glycogen synthase kinase-3 beta, sequence (P49841 whole entry): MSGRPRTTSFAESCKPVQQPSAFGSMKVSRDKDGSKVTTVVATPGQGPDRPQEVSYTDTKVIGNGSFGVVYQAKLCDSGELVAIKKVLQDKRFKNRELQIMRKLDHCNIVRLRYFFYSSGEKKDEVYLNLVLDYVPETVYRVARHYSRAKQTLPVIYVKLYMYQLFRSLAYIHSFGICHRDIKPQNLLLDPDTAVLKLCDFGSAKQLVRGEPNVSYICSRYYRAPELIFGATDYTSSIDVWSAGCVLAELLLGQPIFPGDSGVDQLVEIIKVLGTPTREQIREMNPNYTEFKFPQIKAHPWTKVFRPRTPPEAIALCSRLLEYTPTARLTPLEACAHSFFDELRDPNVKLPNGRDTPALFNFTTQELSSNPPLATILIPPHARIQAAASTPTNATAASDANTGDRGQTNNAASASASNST
Cell division cycle 7-related protein kinase, sequence (O00311 whole entry): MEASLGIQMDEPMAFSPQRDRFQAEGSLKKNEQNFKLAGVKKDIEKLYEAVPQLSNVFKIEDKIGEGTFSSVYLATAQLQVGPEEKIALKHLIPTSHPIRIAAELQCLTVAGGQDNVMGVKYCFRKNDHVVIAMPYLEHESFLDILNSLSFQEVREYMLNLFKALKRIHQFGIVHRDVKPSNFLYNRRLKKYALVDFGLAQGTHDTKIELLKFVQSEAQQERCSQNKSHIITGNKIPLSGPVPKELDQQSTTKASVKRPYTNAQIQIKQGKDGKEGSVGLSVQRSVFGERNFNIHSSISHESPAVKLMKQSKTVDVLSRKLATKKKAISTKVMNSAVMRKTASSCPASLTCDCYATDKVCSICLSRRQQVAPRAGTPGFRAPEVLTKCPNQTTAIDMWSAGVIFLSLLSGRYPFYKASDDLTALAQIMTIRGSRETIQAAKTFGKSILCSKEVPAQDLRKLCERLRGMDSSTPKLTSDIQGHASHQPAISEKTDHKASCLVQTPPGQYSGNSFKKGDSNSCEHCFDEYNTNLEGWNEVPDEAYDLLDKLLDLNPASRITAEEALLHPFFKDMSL

SMILES | Papp A→B at 2 h [1] | IC50 [2] | CLint scaled [3] | IC50 [5] | further results
O=C(CC1CNC(=O)c2cc(-c3cccc(Cl)c3)cn21)NCc1ccco1 (racemic) | 33.1 ×10⁻⁶ cm/s | 2430 nM | 97.4 mL/min/kg | – | –
C[C@@H](CN1CCN(C)CC1)NC(=O)C[C@H]1CNC(=O)c2cc(-c3cccc(Cl)c3)cn21 | – | – | – | 530 nM | IC50 [4]: > 5000 nM
CN1CCN(C[C@@H](NC(=O)C[C@H]2CNC(=O)c3cc(-c4cc(Cl)ccc4F)cn32)C2CCCCC2)CC1 | – | 147 nM | – | – | –
CC(C)(C)CNC(=O)CC1CNC(=O)c2cc(-c3ccccc3)cn21 (racemic) | – | – | – | 2540 nM | –
CN1CCN(C[C@@H](NC(=O)C[C@H]2CNC(=O)c3cc(-c4ccc(F)c(F)c4)cn32)C2CCCCC2)CC1 | – | 156 nM | – | 26 nM | IC50 [4]: 250 nM
CC(C)(C)CNC(=O)CC1CNC(=O)c2cc(-c3ccccc3F)cn21 (racemic) | – | – | – | 1720 nM | –
O=C(CC1CNC(=O)c2cc(-c3cccc(C(F)(F)F)c3)cn21)NCc1cccc(F)c1 (racemic) | – | – | – | 614 nM | –
CN(C)C1CCN(C[C@@H](NC(=O)C[C@H]2CNC(=O)c3cc(-c4cccc(Cl)c4)cn32)C2CCCCC2)CC1 | 1.01 ×10⁻⁶ cm/s | 480 nM | 5 mL/min/kg | – | –
O=C(CC1CNC(=O)c2cc(-c3ccccc3F)cn21)NCC1CCCCC1 (racemic) | 11.9 ×10⁻⁶ cm/s | 1790 nM | 400 mL/min/kg | 124 nM | –
CN1CCN(C[C@@H](NC(=O)C[C@H]2CNC(=O)c3cc(-c4cccc(F)c4)cn32)C2CCCCC2)CC1 | – | 490 nM | 6.7 mL/min/kg | 9 nM | IC50 [4]: 150 nM
CC(C)(C)CNC(=O)CC1CNC(=O)c2cc(-c3cccc(C(F)(F)F)c3)cn21 (racemic) | – | – | – | 521 nM | –
CN1CCN(C(=O)C[C@H]2CNC(=O)c3cc(-c4cccc(F)c4)cn32)[C@@H](c2ccccc2)C1 | – | – | – | 233 nM | –
O=C(CC1CNC(=O)c2cc(-c3cc(Cl)ccc3F)cn21)NCc1ccco1 (racemic) | – | – | – | 132 nM | IC50 [4]: 2410 nM
O=C(CC1CNC(=O)c2cc(-c3cn[nH]c3)cn21)NCc1cccc(F)c1 (racemic) | – | – | – | 1100 nM | IC50 [6]: 60 nM; IC50 [7]: 284 nM; IC50 [8]: 386 nM
O=C(CC1CNC(=O)c2cc(-c3cccc(F)c3)cn21)NCC1CCCCC1 (racemic) | 11.2 ×10⁻⁶ cm/s | 1110 nM | 48.5 mL/min/kg | – | –
O=C(CC1CNC(=O)c2cc(-c3ccc(F)c(F)c3)cn21)NCC1CCCCC1 (racemic) | 11.8 ×10⁻⁶ cm/s | 1270 nM | 400 mL/min/kg | 94 nM | –
NC[C@@H](NC(=O)C[C@H]1CNC(=O)c2cc(-c3ccnc(F)c3)cn21)c1ccccc1 | 0.9 ×10⁻⁶ cm/s | > 10000 nM | 6.5 mL/min/kg | – | –
CN1CCN(C[C@@H](NC(=O)C[C@H]2CNC(=O)c3cc(-c4ccnc(F)c4)cn32)C2CCCCC2)CC1 | 0.33 ×10⁻⁶ cm/s | 2480 nM | – | 13 nM | IC50 [4]: 95 nM

SMILES | Papp A→B at 2 h [1] | IC50 [2] | CLint scaled [3] | IC50 [5] | further results
CC(C)(C)CNC(=O)CC1CNC(=O)c2cc(-c3ccc(F)cc3)cn21 (racemic) | – | – | – | 2550 nM | –
O=C(C[C@H]1CNC(=O)c2cc(-c3cccc(F)c3)cn21)N[C@H](CO)Cc1ccccc1 | 1.3 ×10⁻⁶ cm/s | 3050 nM | 87.8 mL/min/kg | 141 nM | –
NC[C@@H](NC(=O)C[C@H]1CNC(=O)c2cc(-c3cccc(F)c3)cn21)C1CCCCC1 | 0.8 ×10⁻⁶ cm/s | > 10000 nM | 10.1 mL/min/kg | 12 nM | IC50 [4]: 275 nM
CC(C)(C)CNC(=O)CC1CNC(=O)c2cc(-c3ccncc3)cn21 (racemic) | – | – | – | 5470 nM | IC50 [8]: 4610 nM
O=C(C[C@H]1CNC(=O)c2cc(-c3cccc(F)c3)cn21)N[C@H](CO)c1ccccc1 | 2.7 ×10⁻⁶ cm/s | 3720 nM | 55 mL/min/kg | 87 nM | –
O=C(CC1CNC(=O)c2cc(-c3cccc(C(F)(F)F)c3)cn21)NCC1CCCCC1 (racemic) | – | – | – | 375 nM | –
CC(C)(C)CNC(=O)CC1CNC(=O)c2cc(-c3ccc(OC(F)(F)F)cc3)cn21 (racemic) | – | – | – | > 10000 nM | –
CC(C)(C)CNC(=O)CC1CNC(=O)c2cc(-c3ccsc3)cn21 (racemic) | – | – | 81 mL/min/kg | – | Papp [9]: 48 ×10⁻⁶ cm/s; Therm_solubility [10]: 68 mg/mL; IC50 [11]: > 10000 nM; IC50 (Casein kinase II): > 10000 nM
CN1CCN(C[C@@H](NC(=O)C[C@H]2CNC(=O)c3cc(-c4cccc(Cl)c4)cn32)C(C)(C)C)CC1 | – | – | – | 5 nM | IC50 [4]: 262 nM
Cc1ccc(Cl)cc1-c1cc2n(c1)C(CC(=O)NCc1ccco1)CNC2=O (racemic) | – | – | – | > 5000 nM | IC50 [4]: > 5000 nM
CC(C)(C)CNC(=O)CC1CNC(=O)c2cc(-c3cccc(OC(F)(F)F)c3)cn21 (racemic) | – | – | – | 1270 nM | –
O=C(C[C@H]1CNC(=O)c2cc(-c3cccc(F)c3)cn21)N[C@H](CO)C1CCCCC1 | 1.1 ×10⁻⁶ cm/s | 1530 nM | 14.6 mL/min/kg | 16 nM | –
CC(C)(C)CNC(=O)CC1CNC(=O)c2cc(-c3cccc(F)c3)cn21 (racemic) | – | – | – | 1940 nM | –
O=C(CC1CNC(=O)c2cc(-c3cccc(C(F)(F)F)c3)cn21)NCC1CCOCC1 (racemic) | – | – | – | 838 nM | IC50 [4]: 3130 nM
NC[C@@H](NC(=O)C[C@H]1CNC(=O)c2cc(-c3cccc(F)c3)cn21)c1ccccc1 | 0.6 ×10⁻⁶ cm/s | > 10000 nM | 8.3 mL/min/kg | 10 nM | –
O=C(CC1CNC(=O)c2cc(-c3ccc(F)c(F)c3)cn21)NCc1ccco1 (racemic) | – | 3640 nM | – | 125 nM | –
O=C(CC1CNC(=O)c2cc(-c3ccnc(Cl)n3)cn21)NCC1CCCCC1 (racemic) | 0.9 ×10⁻⁶ cm/s | > 5000 nM | 197 mL/min/kg | 33 nM | IC50 [4]: 1320 nM
